Assay [1] concerns the target human MEK1 (Homo sapiens, UniProt Q02750). Nature of the assay: MEK-1 Enzyme Assay (LANCE-HTRF). It is filed as biochemical. The conditions noted are these: 100 nM MEK1, 15 μM ATP, 300 nM ERK2, two hours. On the procedure:
The activity of the compounds of the present invention may be determined by the following procedure: Inhibition of human MEK1 kinase activity was monitored with a homogenous, fluorescence based assay. The assay uses time resolved fluorescence resonance energy transfer to probe for phosphorylation of […] by MEK1. The assay is carried out in low volume 96 well microtiterplates. In a total volume of 15 μl, compounds are incubated with 100 nM MEK1, 15 μM ATP, 300 nM ERK2 employing a buffer containing 20 mM TRIS/HCl, 10 mM MgCl2, 100 μM NaVO4, 1 mM DTT, and 0.005% Tween 20 (pH 7.4). After two hours, 5 nM Europium-anti-PY20 (Perkin Elmer) and 50 nM Anti-GST-Allophycocyanin (CisBio) in buffer containing 50 mM EDTA and 0.05% BSA are added and the reaction incubated for one hour in the dark. Time-resolved fluorescence is measured using a LJL-Analyst (Molecular Devices) with an excitation wavelength of 340 nm and an emission wavelength of 665 nm. The final concentration of DMSO is 2%.

In assay [2] the test system is Murine colon C26 cells. Put plainly: Tumor Cell Proliferation Assay (ATP Lite), C26. The class given is cell-based. The conditions noted are these: Mus musculus, 96 h, 4 days. On the procedure: (§1) Murine colon C26, human melanoma A375 and human pancreatic MiaPaCa-2 cells were plated in 96 well Corning white plates (1500 cells/well for C26, and 2000 cells/well for A375, and MiaPaCa-2) and cultured overnight at 37° C. in 5% CO2. Inhibitors were serially diluted in 100 DMSO and subsequently added to cells to reach a final concentration of 0.25% DMSO. The cells were incubated for 4 days in the presence of test compounds in cell growth media (DMEM with 10% fetal bovine serum, 2 mM glutamine for C26, and MiaPaCa-2, and RPMI with 10% fetal bovine serum, 2 mM glutamine for A375). Cell proliferation was quantitated using the ATP lite cell proliferation kit (Packard). Columns 2-5 show the concentration of compounds required to induce 50% cell death (IC50 in μM) of […].

Assay [3] has as its system human melanoma A375 cells. Put plainly: Tumor Cell Proliferation Assay (ATP Lite), A375. It is filed as cell-based. The conditions noted are these: A-375, 96 h, 4 days. On the procedure:
as §1

The test system of assay [4] is human pancreatic MiaPaCa-2 cells. Put plainly: Tumor Cell Proliferation Assay (ATP Lite), MiaPaCa-2. The class given is cell-based. The conditions noted are these: MIA PaCa-2, 96 h, 4 days. On the procedure:
as §1

Assay [5] relates to Colo-205 xenograft. Nature of the assay: In vivo efficacy, Colo-205 mouse xenograft model. Particulars: male nude mice. On the procedure: (§2) Male nude (nu/nu) mice were injected subcutaneously above the right foreleg with certain number of cells of human tumor cell lines such as Colo-205, A375 or MiaPaCa2. Tumors were measured with calipers one week after cells were implanted. Tumor length (l) and width (w) were measured and tumor volume was calculated with the equation l*w^2/2. […] Tumor volume and body weight were measured for each animal on Days 0, 4, 6, 8, 10, 12 and 14. Tumor volume and percent body weight were analyzed via Two-Way Repeated Measures Analysis of Variance (RM-ANOVA) followed by Fisher's post-hoc multiple pair-wise comparisons of treatment group means.

The subject of assay [6] is MiaPaCa2 xenograft. Put plainly: In vivo efficacy, MiaPaCa2 mouse xenograft model. Particulars: male nude mice. On the procedure: as §2

Chain of human MEK1 (Q02750 whole entry): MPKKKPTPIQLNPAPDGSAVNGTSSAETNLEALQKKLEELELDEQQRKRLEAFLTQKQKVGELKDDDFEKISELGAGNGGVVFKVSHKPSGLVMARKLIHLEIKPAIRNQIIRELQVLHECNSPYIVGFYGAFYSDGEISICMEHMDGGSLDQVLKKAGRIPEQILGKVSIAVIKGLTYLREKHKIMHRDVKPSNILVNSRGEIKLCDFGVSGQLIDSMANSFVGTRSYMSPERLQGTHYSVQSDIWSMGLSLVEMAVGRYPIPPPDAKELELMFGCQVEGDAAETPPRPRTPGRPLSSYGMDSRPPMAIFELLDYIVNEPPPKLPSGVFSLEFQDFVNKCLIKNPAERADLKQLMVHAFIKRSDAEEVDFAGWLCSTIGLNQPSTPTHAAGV

With `O=C(N[C@@H]1CCC[C@@H](O)[C@H]1O)c1cc(Cl)ncc1Nc1ccc(I)cc1F` (racemic) [(1), 2-Chloro-N-((1RS,2SR,3RS)-2,3-dihydroxy-cyclohexyl)-5-(2-fluoro-4-iodo-phenylamino)-sonicotinamide], the IC50 stood at 34.5 nM in assay [1], 2 nM in assay [2], 2 nM in assay [3] and 2 nM in assay [4].
On to `O=C(N[C@@H]1CCC[C@@H](O)[C@H]1O)c1c(F)cncc1Nc1ccc(I)cc1F` (racemic) [(2)], for which the IC50 in assay [1] came to 74 nM; in assay [2] it was 5 nM; in assay [3], 1 nM; in assay [4], 4.5 nM.
On the same counts, the results for `O=C(N[C@H]1CCC[C@H](O)[C@@H]1O)c1ccncc1Nc1ccc(I)cc1F` (racemic) [(3), N-[(1SR,2RS,3SR)-2,3-dihydroxycyclohexyl]-3-[(2-fluoro-4-iodophenyl)amino]isonicotinamide] are 94.8 nM, 16 nM, 1.4 nM and 7.3 nM.
Regarding `N[C@@H]1CCC[C@@H](OC(=O)c2c(F)cncc2Nc2ccc(I)cc2F)[C@H]1O` (racemic) [(4), 3-Fluoro-5-(2-fluoro-4-iodo-phenylamino)-isonicotinic acid (1RS,2SR,3RS)-3-amino-2-hydroxy-cyclohexyl ester], the IC50 in assay [1] was 160 nM; in assay [2], 20 nM; in assay [3] it was 85.5 nM; in assay [4], 49 nM.
For `O=C(N[C@@H]1CCC[C@@H](O)[C@H]1O)c1ccncc1Nc1ccc(Br)cc1F` (racemic) [(5), 3-(4-Bromo-2-fluoro-phenylamino)-N-((1RS,2SR,3RS)-2,3-dihydroxy-cyclohexyl)-isonicotinamide], in that order: 98 nM, 73 nM, 7.5 nM and 42.5 nM.
In the case of `O=C(N[C@@H]1CCC[C@@H](O)[C@H]1O)c1ccncc1Nc1ccc(Br)cc1Cl` (racemic) [(6), 3-(4-Bromo-2-chloro-phenylamino)-N-((1RS,2SR,3RS)-2,3-dihydroxy-cyclohexyl)-isonicotinamide], the IC50 in assay [1] was determined as 38 nM; in assay [2], 113 nM; in assay [3], 16.8 nM; in assay [4], 75.3 nM.
On the same counts, the results for `O=C(N[C@H]1CCC[C@H](O)[C@@H]1O)c1ccncc1Nc1ccc(I)cc1F` [(7), N-((1S,2R,3S)-2,3-dihydroxycyclohexyl)-3-(2-fluoro-4-iodophenylamino)isonicotinamide] are 2670 nM, 5400 nM, 274 nM and 2120 nM.
As for `O=C(N[C@@H]1CCC[C@@H](O)[C@H]1O)c1ccncc1Nc1ccc(Br)cc1F` [(9), 3-(4-bromo-2-fluorophenylamino)-N-((1R,2S,3R)-2,3-dihydroxycyclohexyl)isonicotinamide], the tumor growth inhibition in assay [5] (daily 1.5 mg/kg, oral route) was found to be 98.5%.
As for `O=C(N[C@@H]1CCC[C@@H](O)[C@H]1O)c1ccncc1Nc1ccccc1F` [(10), N-((1R,2S,3R)-2,3-Dihydroxy-cyclohexyl)-3-(2-fluoro-phenylamino)-isonicotinamide], the IC50 was determined as 189 nM in assay [1], 150 nM in assay [2], 21.5 nM in assay [3] and 74 nM in assay [4].
Consider `O=C(N[C@@H]1CCC[C@@H](O)[C@H]1O)c1ccncc1Nc1ccc(I)cc1F` [Compound (8), N-[(1R,2S,3R)-2,3-dihydroxycyclohexyl]-3-[(2-fluoro-4-iodophenyl)amino]isonicotinamide], for which the IC50 in assay [1] is 133 nM; in assay [2], 4.7 nM; in assay [3] it was 1.6 nM; in assay [4], 2.7 nM. In assay [5] (50 μg/kg*day, oral route), the “tumor growth inhibition (TGI)” value stood at 100.69%. Besides, the tumor growth inhibition in assay [5] (150 μg/kg/day) worked out at 115.33%. Moreover, the TGI came out at 100.97% in assay [6] (33 μg/kg/day) and 110.74% in assay [6] (50 μg/kg/day).

The record behind these values is patent publication US8404725B2, “Phenylamino isonicotinamide compounds” (Merck Patent GmbH, priority 2008, dated 2013).
